Reference: patent publication US20130253022A1 (FOX CHASE CHEMICAL DIVERSITY CENTER, INC., priority 2010, published 2013)

Columns and labels:
[1] = tested on: pentylenetetrazol-induced clonic seizures; test: Subcutaneous pentylenetetrazol seizure test (scPTZ), rat; assay type: in vivo, Sprague-Dawley rats; settings: pentylenetetrazol 70 mg/kg s.c., test compound orally, read-out: Rat PTZ ED50, s.c.
Experimental: (§1) Methods to measure anticonvulsant activity: All tests were conducted by the Anticonvulsant Screening Program (ASP) of the National Institute of Neurological Disease and Stroke at the National Institutes of Health. The subcutaneous pentylenetetrazol (metrazol) seizure test (scPTZ). This model primarily identifies compounds that raise seizure threshold. The behavioral seizure produced is not typical of absence epilepsy but clonic in nature. With some minor exceptions, the pharmacological profile of the scPTZ seizure model is consistent with the human condition. The scPTZ test utilizes a dose of pentylenetetrazol (85 mg/kg in Carworth Farms No. 1 mice and 70 mg/kg in Sprague-Dawley rats). This produces clonic seizures lasting for a period of at least five seconds in 97 percent of animals tested. At the anticipated time of testing the convulsant is administered subcutaneously. The test compound is administered intraperitoneally in mice and orally in rats. Animals are observed over a 30 minute period. Absence of clonic spasms in the observed time period indicates a compound's ability to abolish the effect of pentylenetetrazol on seizure threshold (Swinyard E A. Laboratory evaluation of antiepileptic drugs: review of laboratory methods. Epilepsia, 1969, 10, 107-119).

Hippocampal Cultures = test: Neuroprotection from glutamate excitotoxicity, CFDA (neuronal viability) assay; assay type: cell-based; settings: Rattus norvegicus; 30 μM glutamate 5 min, hippocampal cultures, 4 hour test period; read-out: NP from Glutamate CFDA EC50
From the text: Cell cultures: All compounds are screened with dissociated hippocampal cultures derived from embryonic day 18 rats as the primary test system. With this preparation, primary neurons are used to test for toxicity as well as neuroprotection in a highly relevant experimental system to epilepsy. In brief, hippocampal tissue are obtained commercially through Brain Bits (Springfield, Ill.) and cultures prepared as previously described by Brewer (Brewer, G. J. Serum-free B27/neurobasal medium supports differentiated growth of neurons from the striatum, substantia nigra, septum, cerebral cortex, cerebellum and dentate gyms, J. Neurosci. Res. 1995, 42, 674-683). The hippocampal neurons are platted at low density (10,000 cell/well) in a 96-well format and maintained in serum-free medium consisting of Neurobasal Medium supplemented with B27 and GlutaMAX (Gibco). Pre-coated poly-L-lysine coated plates are used because of the preferential adherence and survival of hippocampal neurons on this matrix support.
Potent neuroprotection is the distinguishing characteristic that separates this program's anticonvulsants from all other commercial drugs for epilepsy. The experimental details and the rationale for the implemented assays are essential in differentiating these compounds from that of others. The central objective of all neuroprotective assays was their relevancy to excitotoxicity and oxidative stress related to epilepsy. Both the amount of glutamate and hydrogen peroxide used in the assays, as well as the time of treatment and duration of the experiment, were designed to be relevant to epilepsy. Further, all time parameters employed in these studies were empirically determined to be within the limits of reversible toxic events, yet using amounts of glutamate and hydrogen peroxide that were relevant to the disease. In regard to glutamate toxicity, a critical feature was the duration of treatment of the hippocampal neurons. The rational for using a short 5 min treatment with glutamate was based on the observation of Randall and Thayer (Randall, R. D.; Thayer, S. A. Glutamate-induced calcium transient triggers calcium overload and neurotoxicity in rat hippocampal neurons, J. Neurosci. 1992, 12, 1882-1895). […] The rationale is that this intense burst of glutamate and resulting calcium overload is relevant to seizures and therefore was important data to capture in the screening assay. The amount of glutamate (30 μM) employed in our screening was based on the basal levels of glutamate observed in microdialysis measurements of hippocampus from epileptogenic patients (Cavus et al. Decreased hippocampal volume on MRI is associated with increased extracellular glutamate in epilepsy patients, Epilepsia, 2008, 49, 1358-1366). In regard to hydrogen peroxide, the amount employed (10 μM) was detected in the hippocampus of rats after kainate-induced status epilepticus (Jarrett et. al., Mitochondrial DNA damage and impaired base excision repair during epileptogenesis, Neurobiol. Dis. 2008, 30, 130-138). To produce neural damage and death with these amounts of glutamate and hydrogen peroxide, the cultures were changed to a medium with significant depletion of antioxidant components in the defined medium supplement B-27 just prior to treatment with the compounds. […]

[2] = tested on: MES-induced seizure spread; test: Maximal electroshock seizure (MES) test, mouse; assay type: in vivo, mice; settings: for Duration of action MES: Mouse Maximal Electroshock (MES) test at 100 mg/kg, i.p.; for ED50: ip, mouse
Experimental: Seizure-related assays, Maximal electroshock test: The most definitive assay for anti-seizure activity is the maximal electroshock (MES) test (Swinyard, E. A. Laboratory evaluation of antiepileptic drugs: review of laboratory methods, Epilepsia, 1969, 10, 107-119). […] With both rodent assays, the duration of action is of high importance as well as the potency of the response.
Methods to measure anticonvulsant activity: All tests were conducted by the Anticonvulsant Screening Program (ASP) of the National Institute of Neurological Disease and Stroke at the National Institutes of Health.
The Maximal Electroshock Seizure (MES) or Maximal Seizure Pattern Test: The MES is a model for generalized tonic-clonic seizures (Putnam and Merritt. Experimental determination of the anticonvulsant properties of some phenyl derivatives. Science 1937, 85, 113-118). It is highly reproducible with consistent endpoints. The behavioral and electrographic seizures generated in this model are consistent with the human disorder. This model identifies those compounds which prevent seizure spread.
In the MES test, an electrical stimulus of 0.2 s in duration (50 mA in mice and 150 mA in rat at 60 Hz) is delivered via corneal electrodes primed with an electrolyte solution containing an anesthetic agent. Mice are tested at 30 minutes and 4 hours following doses of 30, 100 and 300 mg/kg of test compound. Test compounds are administered intraperitoneally to the mice. Rats are tested at time intervals between 0.25 and 4 hours following a standard oral dose of 30 mg/kg. Abolition of the hindlimb tonic extensor component indicates the test compound's ability to inhibit MES-induced seizure spread.

[3] = tested on: pentylenetetrazol-induced clonic seizures; test: Subcutaneous pentylenetetrazol seizure test (scPTZ), mouse; assay type: in vivo, Carworth Farms No. 1 mice; settings: pentylenetetrazol 85 mg/kg s.c., test compound intraperitoneally, read-out: Mouse PTZ ED50, s.c.
Experimental: as §1

SMILES	ED50 [1] [mg/kg]	EC50 (Hippocampal Cultures) [nM]	Duration of action MES [2] [h]	ED50 [2] [mg/kg]	ED50 [3] [mg/kg]
NS(=O)(=O)NCC(F)(F)c1ccccc1Cl [Example 2, 2,2-Difluoro-2-(2-chlorophenyl)-ethyl-1-sulfamide]	48	10	4	54	98
NS(=O)(=O)NCC(F)(F)c1ccccc1F [Example 1, 2,2-Difluoro-2-(2-fluorophenyl)-ethyl-1-sulfamide]	107	1	4	50	108
